Where two headings read alike, the source gives them in different places.
Legend:
[1] = test system: Promonocytic cell line (U937); assay: Incubation of CD33+ promonocytic cell line U937 with CA/PCQ, viable cell count; format: cell-based; conditions: for inhibition at 25 µg/mL: U937, 25.0 μg/ml; for inhibition at 50 µg/mL: U937, 50.0 μg/ml; for inhibition at 100 µg/mL: U937, 100.0 μg/ml
Protocol: Culture of Promonocytic cell line U937. […] This cell line is CD33^+. Incubation of CD33^+ cell line U937 with CA. […] Cells were then washed and counted for viability.

[2] = test system: Erythroleukemic cell line (K562); assay: Incubation of CD33- erythroleukemic cell line K562 with CA/PCQ, viable cell count; format: cell-based; conditions: Homo sapiens; for inhibition at 25 µg/mL: K562, 25.0 μg/ml; for inhibition at 50 µg/mL: K562, 50.0 μg/ml; for inhibition at 100 µg/mL: K562, 100.0 μg/ml
From the text: This cell line was collected from American Type Culture Collection (ATCC), VA, USA. This cell line is […]. […] Cells were then washed and counted for viability.

[3] = Homo sapiens, U-937, 24 h, 1 day, 1 × 10^5 cells per ml per well, read-out: Percentage inhibition of Cell Growth
[4] = Homo sapiens, U-937, 48 h, 2 days, 1 × 10^5 cells per ml per well, read-out: Percentage inhibition of Cell Growth
[5] = Homo sapiens, U-937, 72 h, 3 days, 1 × 10^5 cells per ml per well, read-out: Percentage inhibition of Cell Growth
[6] = Homo sapiens, U-937, 72 h, 3 days, 2×10^5 cells per ml per well, read-out: % Inhibition of cell growth (After 3 days of incubation)
[7] = 24 h, 1 day, 1 × 10^5 cells per ml per well, read-out: Percentage inhibition of Cell Growth
[8] = 48 h, 2 days, 1 × 10^5 cells per ml per well, read-out: Percentage inhibition of Cell Growth
[9] = 72 h, 3 days, 1 × 10^5 cells per ml per well, read-out: Percentage inhibition of Cell Growth
[10] = 72 h, 3 days, 2×10^5 cells per ml per well, read-out: % Inhibition of cell growth (After 3 days of incubation)

O=C(/C=C/c1ccc(O)c(O)c1)O[C@@H]1C[C@](O)(C(=O)O)C[C@@H](O)[C@H]1O (single isomer, unassigned) [CA, chlorogenic acid or 3-Caffeoyl quinic acid]
inhibition at 10 µg/mL ([1]; Homo sapiens, U-937, 24 h, U937, 10.0 μg/ml, 1 day, 1 × 10^5 cells per ml per well, read-out: Percentage inhibition of Cell Growth): 8.33%
inhibition at 25 µg/mL [1, 3]: 16.7%
inhibition at 50 µg/mL [1, 3]: 25%
inhibition at 100 µg/mL [1, 3]: 45.8%
inhibition at 10 µg/mL ([1]; Homo sapiens, U-937, 48 h, U937, 10.0 μg/ml, 2 days, 1 × 10^5 cells per ml per well, read-out: Percentage inhibition of Cell Growth): 44%
inhibition at 25 µg/mL [1, 4]: 52%
inhibition at 50 µg/mL [1, 4]: 64%
inhibition at 100 µg/mL [1, 4]: 96%
inhibition at 10 µg/mL ([1]; Homo sapiens, U-937, 72 h, U937, 10.0 μg/ml, 3 days, 1 × 10^5 cells per ml per well, read-out: Percentage inhibition of Cell Growth): 57.1%
inhibition at 25 µg/mL [1, 5]: 71.4%
inhibition at 25 µg/mL [1, 6]: 16.7%
inhibition at 50 µg/mL [1, 5]: 89.3%
inhibition at 50 µg/mL [1, 6]: 25%
inhibition at 100 µg/mL [1, 5]: 100%
inhibition at 10 µg/mL ([1]; Homo sapiens, U-937, U937, 10 μg/ml, 48 hr, 1 × 10^5 cells/ml/well, read-out: Percent inhibition of cell growth after 48 hr of incubation): 25%
inhibition at 15 µg/mL ([1]; Homo sapiens, U-937, U937, 15 μg/ml, 48 hr, 1 × 10^5 cells/ml/well, read-out: Percent inhibition of cell growth after 48 hr of incubation): 43.7%
inhibition at 20 µg/mL ([1]; Homo sapiens, U-937, U937, 20 μg/ml, 48 hr, 1 × 10^5 cells/ml/well, read-out: Percent inhibition of cell growth after 48 hr of incubation): 90.6%
destruction of cells (in words) ([1]; U937): destroyed
inhibition at 10 µg/mL ([2]; 24 h, K562, 10.0 μg/ml, 1 day, 1 × 10^5 cells per ml per well, read-out: Percentage inhibition of Cell Growth): 8%
inhibition at 25 µg/mL [2, 7]: 20%
inhibition at 50 µg/mL [2, 7]: 28%
inhibition at 100 µg/mL [2, 7]: 84%
inhibition at 10 µg/mL ([2]; 48 h, K562, 10.0 μg/ml, 2 days, 1 × 10^5 cells per ml per well, read-out: Percentage inhibition of Cell Growth): 48.1%
inhibition at 25 µg/mL [2, 8]: 63%
inhibition at 50 µg/mL [2, 8]: 77.8%
inhibition at 100 µg/mL [2, 8]: 98.1%
inhibition at 10 µg/mL ([2]; 72 h, K562, 10.0 μg/ml, 3 days, 1 × 10^5 cells per ml per well, read-out: Percentage inhibition of Cell Growth): 85.2%
inhibition at 25 µg/mL [2, 9]: 92.6%
inhibition at 25 µg/mL [2, 10]: 20%
inhibition at 50 µg/mL [2, 9]: 100%
inhibition at 50 µg/mL [2, 10]: 28%
inhibition at 100 µg/mL [2, 9]: 100%
inhibition at 10 µg/mL ([2]; K562, 10 μg/ml, 48 hr, 1 × 10^5 cells/ml/well, read-out: Percent inhibition of cell growth after 48 hr of incubation): 46.6%
inhibition at 15 µg/mL ([2]; K562, 15 μg/ml, 48 hr, 1 × 10^5 cells/ml/well, read-out: Percent inhibition of cell growth after 48 hr of incubation): 93.3%
inhibition at 20 µg/mL ([2]; K562, 20 μg/ml, 48 hr, 1 × 10^5 cells/ml/well, read-out: Percent inhibition of cell growth after 48 hr of incubation): 100%

— US20030229140A1, “Herbal molecule as potential anti-leukemic drug” (priority 2002, published 2003)
